Several values for one entry are separate records, joined by “and”; a condition that tells them apart may be missing. Equal entries are not always repeated.
Experiments:
KAP^2D cells [1] = test: western blot analysis of p38α signaling in KAP^2D cells; format: cell-based, mouse; details: 1 µM, 1 day
Procedure: Proteins were extracted from cells and organoids using radioimmunoprecipitation assay extraction buffer (50 mM Tris pH 8.0, 150 mM NaCl, 1% Triton X-100, 0.5% sodium deoxycholate, 0.1% SDS, 5 mM EDTA and 1 mM EGTA) supplemented with protease and phosphatase inhibitors (cOmplete and PhosSTOP, Roche). Protein concentrations were measured using the DC (detergent compatible) Protein Assay (Bio-Rad). Briefly, 20–30 µg of protein was separated by SDS–PAGE and transferred onto PVDF membranes (Immobilon-P, Millipore). Membranes were blocked in 5% BSA and Tris-buffered saline (TBS)–Tween buffer and then incubated with primary antibodies overnight at 4 °C and with horseradish peroxidase-conjugated secondary antibodies for 1 h at room temperature. All used antibodies and dilutions are listed in the Nature Portfolio Reporting Summary. The blots were visualized using the ChemiDoc MP Imaging System (BIO-RAD) and ImageLab version 5.2.1 software. Vinculin and β-actin were used as loading controls.

BAP organoids = test: cell viability in BAP organoids; format: cell-based, mouse; details: for Cell viability (%): Fig. 2j, replicates
Procedure: A total of 1,000–2,000 single cells were plated per well in white 96-well plates (Greiner) in culture medium containing 10% GFR Matrigel or Cultrex BME. The treatment with doxycycline (5 µg ml^−1), pharmacological inhibitors or corresponding volumes of DMSO was started 24 h after plating. Doxycycline was obtained from Sigma-Aldrich. […] Results were normalized to vehicle (DMSO) or to shNC. For cell-doubling assays, the cell number was quantified at the corresponding time points using Guava EasyCyte flow cytometer (Luminex, CytoSoft v5.2 software).

subcutaneous KAP CRCs = test: treatment of subcutaneous KAP tumors in wild-type mice; format: in vivo, mouse; details: for Tumor volume (mm³): Fig. 1j, individual tumors
Procedure: Subcutaneous injection, splenic seeding or cecum injection of organoids was performed in 8–10-week-old C57BL/6 N/Crl, Rag2^−/− (B6.Cg-Rag2^tm1.1Cgn/J), or CB17 Scid beige (CB17.Cg-Prkdc^scidLyst^bg-J/Crl) mice, obtained from Charles River. The organoids were dissociated into single cells, washed with PBS and injected in a 1:1 mixture of PBS and Matrigel. For murine organoids, 1 × 10^5 cells were injected into the left and right flanks or the spleen capsule and 2 × 10^6 cells were injected into the cecum wall. For human organoids, 4 × 10^5 cells were injected into the flanks of CB17 Scid beige mice. For splenic seeding and cecum injection, mice were anaesthetized using ketamine (100 mg kg^−1, intraperitoneally) and xylazin (10 mg/kg, intraperitoneally) in NaCl and a small laparotomy below the thorax was performed.
No mice were excluded during treatment studies.

PDO4 = test: cell viability in patient-derived CRC organoids PDO4; format: cell-based, human; details: Fig. 3e, replicates
Procedure: (§1) For in vitro treatment studies, organoids were mechanically dissociated and digested using TrypLE supplemented with 100 µg ml^−1 DNaseI and 10.5 µM Y-27632 dihydrochloride (Invitrogen) at 37 °C. A total of 1,000–2,000 single cells were plated per well in white 96-well plates (Greiner) in culture medium containing 10% GFR Matrigel or Cultrex BME. The treatment with doxycycline (5 µg ml^−1), pharmacological inhibitors or corresponding volumes of DMSO was started 24 h after plating. Doxycycline was obtained from Sigma-Aldrich. […] Cell viability was measured by means of CellTiter-Glo 3D or CellTiter-Glo 2.0 reagent (Promega) according to the manufacturers’ instructions and the Infinite M Plex reader (Tecan, i-control version 3.9.1 software). Results were normalized to vehicle (DMSO) or to shNC. For cell-doubling assays, the cell number was quantified at the corresponding time points using Guava EasyCyte flow cytometer (Luminex, CytoSoft v5.2 software).

PDO3 = test: cell viability in patient-derived CRC organoids PDO3; format: cell-based, human; details: Fig. 3d, replicates
Procedure: as §1

PDO2 = test: cell viability in patient-derived CRC organoids PDO2; format: cell-based, human; details: Fig. 3c, replicates
Procedure: as §1

KAP^2D cells [2] = test: quantification of viable KAP^2D cells over time (cell-doubling assay); format: cell-based, mouse; details: Fig. 4i
Procedure: The treatment with doxycycline (5 µg ml^−1), pharmacological inhibitors or corresponding volumes of DMSO was started 24 h after plating. […] Cell viability was measured by means of CellTiter-Glo 3D or CellTiter-Glo 2.0 reagent (Promega) according to the manufacturers’ instructions and the Infinite M Plex reader (Tecan, i-control version 3.9.1 software). Results were normalized to vehicle (DMSO) or to shNC. For cell-doubling assays, the cell number was quantified at the corresponding time points using Guava EasyCyte flow cytometer (Luminex, CytoSoft v5.2 software).

PDO8 = test: cell viability in patient-derived CRC organoids PDO8; format: cell-based, human
Procedure: as §1

COLO 205 = test: cell viability in human CRC cell line COLO 205; format: cell-based; details: 4 d
Procedure: To generate KAP^2D cells, KAP organoids were isolated from Matrigel, fragmented by mechanical dissociation and plated without any extracellular matrix on common cell culture dishes. Phoenix-Eco packaging cells (CRL-3214), HCT-15 (CCL-225), HCT 116 (CCL-247), COLO 205 (CCL-222), LS 174T (CL-188), RKO (CRL-2577) and HT-29 (HTB-38) were obtained from the American Type Culture Collection. The cells were cultured at 37 °C and 7% CO2 with RPMI (KAP^2D cells) or DMEM (other cell lines), supplemented with 10% FBS and penicillin–streptomycin. KAP^2D cells were authenticated using PCR (Kras locus and Trp53 locus). Phoenix-Eco packaging cells and HCT-15, HCT 116, COLO 205, LS 174T, RKO and HT-29 cells were authenticated by the provider using short tandem repeat profiling. No commonly misidentified cell lines were used. Mycoplasma contamination was excluded by a PCR-based analysis.
as §1

PDO12 = test: cell viability in patient-derived CRC organoids PDO12; format: cell-based, human
Procedure: as §1

PDO1 = test: cell viability in patient-derived CRC organoids PDO1; format: cell-based, human; details: Fig. 3b, replicates
Procedure: as §1

SMILES: O=C(NCCN1CCOCC1)c1ccc2c(c1)C(=O)c1ccc(Nc3ccc(F)c(NC(=O)c4ccccc4)c3)cc1CC2 [Compound 1639]
- MK2^T334 phosphorylation (in words) (KAP^2D cells [1]): reduced MK2^T334 phosphorylation
- therapeutic effect in BAP organoids (in words) (BAP organoids; 4 days): no therapeutic effects
- Cell viability (%) (BAP organoids; 0,5 µM, 5 µM): 89.71% and 139.45% and 151.95%
- Cell viability (%) (BAP organoids; 0,25 µM): 99.59% and 127.60% and 118.40%
- Cell viability (%) (BAP organoids; 1 µM): 87.55% and 125.47% and 95.41%
- Tumor volume (subcutaneous KAP CRCs; 0 d of treatment, single tumors, Fig. 3k): 56.0 mm³ and 75.0 mm³ and 48.0 mm³ and 80.0 mm³ and 62.5 mm³ and 40.0 mm³ and 64.0 mm³
- subcutaneous KAP tumor development (in words) (subcutaneous KAP CRCs; 20 mg kg^−1 daily, oral gavage): decelerated CRC development
- Tumor volume (mm³) (subcutaneous KAP CRCs; day 0 of treatment): 56.0 mm³ (2×) and 75.0 mm³ and 48.0 mm³ (3×) and 80.0 mm³ and 62.5 mm³ and 40.0 mm³ and 64.0 mm³
- Tumor volume (mm³) (subcutaneous KAP CRCs; day 2 of treatment): 75.0 mm³ (2×) and 87.5 mm³ and 62.5 mm³ and 125.0 mm³ and 56.0 mm³ (2×) and 72.0 mm³ and 48.0 mm³ and 64.0 mm³
- Tumor volume (mm³) (subcutaneous KAP CRCs; day 4 of treatment): 126.0 mm³ (2×) and 64.0 mm³ and 125.0 mm³ and 72.0 mm³ and 75.0 mm³ and 62.5 mm³ (2×) and 80.0 mm³ and 100.0 mm³
- Tumor volume (mm³) (subcutaneous KAP CRCs; day 6 of treatment): 144.0 mm³ (2×) and 75.0 mm³ (2×) and 112.5 mm³ and 80.0 mm³ and 62.5 mm³ and 56.0 mm³ and 87.5 mm³ and 126.0 mm³
- Tumor volume (mm³) (subcutaneous KAP CRCs; day 8 of treatment): 144.0 mm³ (2×) and 162.0 mm³ and 87.5 mm³ (2×) and 112.5 mm³ and 75.0 mm³ (3×) and 100.0 mm³
- Tumor volume (mm³) (subcutaneous KAP CRCs; day 10 of treatment): 162.0 mm³ and 180.0 mm³ and 87.5 mm³ (4×) and 108.0 mm³ (2×) and 75.0 mm³ and 171.5 mm³
- Tumor volume (mm³) (subcutaneous KAP CRCs; day 12 of treatment): 180.0 mm³ (2×) and 220.5 mm³ and 112.5 mm³ (3×) and 100.0 mm³ and 108.0 mm³ and 64.0 mm³ and 126.0 mm³
- Cell viability (%) (PDO4; 0,5 µM, 5 µM): 53.06% and 53.55%
- Cell viability (%) (PDO4; 0,25 µM, 25 µM): 68.57% and 69.02%
- Cell viability (%) (PDO4; 1 µM): 67.76% and 68.24%
- viability at 5 µM (PDO4; Homo sapiens, 0,5 µM): 50.2%
- viability at 25 µM (PDO4; Homo sapiens, 0,25 µM): 67.4%
- viability at 1 µM (PDO4; Homo sapiens, 1 µM): 66.9%
- Cell viability (%) (PDO3; 0,5 µM, 5 µM): 112.45% and 94.73% and 79.47%
- Cell viability (%) (PDO3; 0,25 µM, 25 µM): 111.26% and 82.86% and 90.87%
- Cell viability (%) (PDO3; 1 µM): 101.94% and 81.53% and 90.79%
- Cell viability (%) (PDO2; 0,5 µM, 5 µM): 69.57% and 95.69% and 90.88%
- Cell viability (%) (PDO2; 0,25 µM): 93.94% and 86.22% and 63.24%
- Cell viability (%) (PDO2; 1 µM): 53.19% and 51.96%
- viability at 1 µM (PDO2; Homo sapiens, 1 µM): 68.7%
- Number of cells (KAP^2D cells [2]; 0 h of treatment): 41307.05 and 44263.95 and 43595.63 and 48502.24 and 40389.64
- Number of cells (KAP^2D cells [2]; 12 h of treatment): 90535.27 and 109902.14 and 96345.55 and 78642.86 and 78628.27 and 80020.34
- Number of cells (KAP^2D cells [2]; 24 h of treatment): 118591.59 and 122111.73 and 126637.09 and 105052.10 and 107245.70 and 108446.50
- Number of cells (KAP^2D cells [2]; 36 h of treatment): 147204.34 and 141762.38 and 180655.61 and 129977.80 and 144707.50 and 146373.80
- Number of cells (KAP^2D cells [2]; 48 h of treatment): 236686.34 and 244575.91 and 256532.61 and 222624.00 and 201311.80 and 207320.10
- Number of cells (KAP^2D cells [2]; 60 h of treatment): 438717.24 and 412186.50 and 425643.09 and 324012.80 and 330875.70 and 354806.50
- viability at 0.5 µM (PDO8; Homo sapiens, 96 h, PDO8, 0.5 µM, 4 d): 82.7%
- Cell viability (%) (PDO8; PDO8, 0.5 µM, 4 d, 0.5 µM): 82.90% and 74.01%
- Cell viability (%) (PDO8; PDO8, 1 µM, 4 days, 1 µM): 84.53% and 69.94% and 45.12%
- COLO 205 Cell viability (%) (COLO 205; 0.0137 µM): 96.89% and 92.36% and 102.13% and 110.53% and 105.25%
- COLO 205 Cell viability (%) (COLO 205; 0.0412 µM): 99.77% and 107.60% and 109.36% and 77.71% and 88.84% and 87.27%
- COLO 205 Cell viability (%) (COLO 205; 0.1235 µM): 93.71% and 107.24% and 99.74% and 85.52% and 87.44% and 87.93%
- COLO 205 Cell viability (%) (COLO 205; 0.3704 µM): 100.71% and 94.45% and 83.28% and 88.21% and 85.79%
- COLO 205 Cell viability (%) (COLO 205; 1.1111 µM): 89.26% and 96.25% and 98.03% and 68.45% and 75.66% and 76.80%
- viability at 0.0137 µM (COLO 205; Homo sapiens, COLO 205, 96 h, 0.0137 µM): 98.5%
- viability at 0.3704 µM (COLO 205; Homo sapiens, COLO 205, 96 h, 0.3704 µM): 92.5%
- Cell viability (%) (PDO12; PDO12, 0.5 µM, 4 d, 0.5 µM): 74.14% and 86.52% and 99.28%
- Cell viability (%) (PDO12; PDO12, 1 µM, 4 days, 1 µM): 67.94% and 91.05% and 88.04%
- Cell viability (%) (PDO1; 0.5 µM): 106.52% and 84.18% and 86.35%
- Cell viability (%) (PDO1; 1 µM): 70.08% and 65.69%
- viability at 1 µM (PDO1; Homo sapiens, 1 µM): 63%

Source: PMC11864979, “First-in-class ultralong-target-residence-time p38α inhibitors as a mitosis-targeted therapy for colorectal cancer” (Nature Cancer, 2025)
